15 molecules from ChEMBL document CHEMBL3272080, “Analogues of luteinizing hormone releasing factor modified at positions 2, 6, and 10” (J Med Chem, 1976) can be followed below.

The nature of data set [1]: Increase in luteinizing hormone secretion in rat anterior pituitary cells relative to luteinizing hormone releasing factor. In kind it is functional, Pituitary gland cell.
The nature of data set [2]: Retardation factor in 1-butanol-acetic acid-water at 4:1:5 ratio by TLC. The format is physicochemical. Conditions: buffer.
Data set [3] can be described thus: Retardation factor in 2-butanol-0.1 N acetic acid at 1:1 ratio by TLC. The format is physicochemical.
Data set [4] can be described thus: Retardation factor in 1-butanol-pyridine-0.1% acetic acid at 5:3:11 ratio by TLC. The format is physicochemical.
Data set [5] is described as follows: Retardation factor in ethyl acetate-pyridine-acetic acid-water at 5:5:1:3 ratio by TLC. In kind it is physicochemical. Conditions: buffer.
Data set [6] in a line: Retardation factor in 1-butanol-2-propanol-1 N ammonium hydroxide-ethyl acetate at 1:1:2.5:1 ratio by TLC. In kind it is physicochemical.
A short description of data set [7]: Retardation factor in 1-butanol-ethyl acetate-acetic acid-water at 1:1:1:1 ratio by TLC. In kind it is physicochemical. Conditions: buffer.
Data set [8] can be described thus: Inhibition of LRF-induced luteinizing hormone secretion in rat anterior pituitary cells relative to [des-His2,D-Ala6]-LRF. The format is functional, Pituitary gland cell.
Data set [9] is described as follows: Retardation factor in 2-butanol-water at 1:1 ratio by TLC. The format is physicochemical. As to conditions: buffer.
Data set [10] in a line: Retardation factor in 2-butanol-0.1 N ammonium hydroxide at 1:1 ratio by TLC. In kind it is physicochemical.

Structures are written as SMILES. Where a SMILES comes first, the peptide text is derived from it. [ ]: non-standard residue; d: D form. pGlu = O=C1CC[C@@H](C(=O)O)N1

For `CC(C)C[C@H](NC(=O)[C@@H](CCCN)NC(=O)[C@H](Cc1ccc(O)cc1)NC(=O)[C@H](CO)NC(=O)[C@H](Cc1c[nH]c2ccccc12)NC(=O)[C@H](Cc1cnc[nH]1)NC(=O)[C@@H]1CCC(=O)N1)C(=O)N[C@@H](CCCNC(=N)N)C(=O)N1CCC[C@H]1C(=O)NCC(N)=O`, the “fold change (FC)” value in data set [1] is given as 182. For the same molecule, the Rf in data set [2] was 0.35; in data set [3] it was 0.24; in data set [4], 0.45; in data set [5], 0.6; in data set [6], 0.25; in data set [7], 0.62.

Turning to `CCNC(=O)[C@@H]1CCCN1C(=O)[C@H](CCCNC(=N)N)NC(=O)[C@H](CC(C)C)NC(=O)[C@@H](CCCCN)NC(=O)[C@H](Cc1ccc(O)cc1)NC(=O)[C@H](CO)NC(=O)[C@H](Cc1c[nH]c2ccccc12)NC(=O)[C@H](Cc1cnc[nH]1)NC(=O)[C@@H]1CCC(=O)N1`, the “fold change (FC)” value in data set [1] was found to be 1726. Moreover, the Rf in data set [2] was 0.4; in [3], 0.27; in data set [4] it was 0.53; in data set [5], 0.63; in [6], 0.31; in data set [7], 0.66.

For the molecule `CCNC(=O)[C@@H]1CCCN1C(=O)[C@H](CCCNC(=N)N)NC(=O)[C@H](CC(C)C)NC(=O)[C@@H](CCCN)NC(=O)[C@H](Cc1ccc(O)cc1)NC(=O)[C@H](CO)NC(=O)[C@H](Cc1c[nH]c2ccccc12)NC(=O)[C@H](Cc1cnc[nH]1)NC(=O)[C@@H]1CCC(=O)N1`, the “fold change (FC)” value in data set [1] stood at 682. The Rf in data set [2] worked out at 0.26; in data set [3] it was 0.29; in [4] it was 0.47; in data set [5], 0.69; in [6], 0.34; in data set [7] it was 0.65.

On to `CC(C)C[C@H](NC(=O)[C@@H](CCCN)NC(=O)[C@H](Cc1ccc(O)cc1)NC(=O)[C@H](CO)NC(=O)[C@H](Cc1c[nH]c2ccccc12)NC(=O)[C@@H]1CCC(=O)N1)C(=O)N[C@@H](CCCNC(=N)N)C(=O)N1CCC[C@H]1C(=O)NCC(N)=O`, for which the “fold change (FC)” value in data set [8] was determined as 134. For the same molecule, the Rf in data set [2] is 0.46; in [3] it was 0.31; in [4] it was 0.54; in data set [5] it was 0.67; in data set [9] it was 0.24; in data set [6], 0.28. Also, in data set [7], the Rf amounted to 0.74.

In the case of `CCNC(=O)[C@@H]1CCCN1C(=O)[C@H](CCCNC(=N)N)NC(=O)[C@H](CC(C)C)NC(=O)[C@@H](CCCCN)NC(=O)[C@H](Cc1ccc(O)cc1)NC(=O)[C@H](CO)NC(=O)[C@H](Cc1c[nH]c2ccccc12)NC(=O)[C@@H]1CCC(=O)N1`, the “fold change (FC)” value in data set [8] is given as 97. The Rf was 0.49 in [2]; 0.35 in data set [3]; 0.59 in data set [4]; 0.71 in [5]; 0.31 in [9]; 0.37 in [6]. The Rf in [7] is listed as 0.76.

As for `CCNC(=O)[C@@H]1CCCN1C(=O)[C@H](CCCNC(=N)N)NC(=O)[C@H](CC(C)C)NC(=O)[C@@H](CCCN)NC(=O)[C@H](Cc1ccc(O)cc1)NC(=O)[C@H](CO)NC(=O)[C@H](Cc1c[nH]c2ccccc12)NC(=O)[C@@H]1CCC(=O)N1`, the “fold change (FC)” value in data set [8] is listed as 105. Besides, the Rf in [2] was 0.54; in data set [3] it was 0.36; in [4], 0.63; in data set [5] it was 0.71; in [9] it was 0.28; in data set [6], 0.38. Also, in data set [7], the Rf amounted to 0.78.

On to `CCCCCCCCCCCCNCCCC[C@@H](NC(=O)[C@H](Cc1ccc(O)cc1)NC(=O)[C@H](CO)NC(=O)[C@H](Cc1c[nH]c2ccccc12)NC(=O)[C@H](Cc1cnc[nH]1)NC(=O)[C@@H]1CCC(=O)N1)C(=O)N[C@@H](CC(C)C)C(=O)N[C@@H](CCCNC(=N)N)C(=O)N1CCC[C@H]1C(=O)NCC(N)=O`, for which the “fold change (FC)” value in [1] amounted to 164. In addition, the Rf in data set [2] stood at 0.4; in data set [3] it was 0.38; in data set [4], 0.56; in data set [5], 0.35; in [9] it was 0.37; in data set [10], 0.37. In addition, the Rf stood at 0.44 in [6] and 0.74 in [7].

For `CC(=O)NCCCC[C@@H](NC(=O)[C@H](Cc1ccc(O)cc1)NC(=O)[C@H](CO)NC(=O)[C@H](Cc1c[nH]c2ccccc12)NC(=O)[C@H](Cc1cnc[nH]1)NC(=O)[C@@H]1CCC(=O)N1)C(=O)N[C@@H](CC(C)C)C(=O)N[C@@H](CCCNC(=N)N)C(=O)N1CCC[C@H]1C(=O)NCC(N)=O`, the “fold change (FC)” value in [1] is given as 274. The Rf in data set [2] was 0.39; in data set [3], 0.34; in data set [4], 0.56; in data set [5], 0.69; in data set [9], 0.34; in [10] it was 0.33. Further, the Rf amounted to 0.43 in [6] and 0.73 in data set [7].

For `CCCCCCCCCCCCNCCC[C@@H](NC(=O)[C@H](Cc1ccc(O)cc1)NC(=O)[C@H](CO)NC(=O)[C@H](Cc1c[nH]c2ccccc12)NC(=O)[C@H](Cc1cnc[nH]1)NC(=O)[C@@H]1CCC(=O)N1)C(=O)N[C@@H](CC(C)C)C(=O)N[C@@H](CCCNC(=N)N)C(=O)N1CCC[C@H]1C(=O)NCC(N)=O`, the “fold change (FC)” value in data set [1] is 290. Besides, the Rf worked out at 0.4 in [2]; 0.39 in data set [3]; 0.59 in [4]; 0.34 in data set [5]; 0.38 in data set [9]; 0.36 in data set [10]. Also, the results for the Rf in [6] and in data set [7] were 0.43 and 0.72, respectively.

On to `CC(=O)NCCC[C@@H](NC(=O)[C@H](Cc1ccc(O)cc1)NC(=O)[C@H](CO)NC(=O)[C@H](Cc1c[nH]c2ccccc12)NC(=O)[C@H](Cc1cnc[nH]1)NC(=O)[C@@H]1CCC(=O)N1)C(=O)N[C@@H](CC(C)C)C(=O)N[C@@H](CCCNC(=N)N)C(=O)N1CCC[C@H]1C(=O)NCC(N)=O`, for which the “fold change (FC)” value in data set [1] was 101. Also, the Rf in [2] stood at 0.38; in data set [3] it was 0.34; in [4], 0.57; in data set [5], 0.66; in data set [9] it was 0.33; in [10], 0.34. In addition, the Rf in [6] is 0.43; in data set [7], 0.7.

Consider `CCCCCCCCCCCCNCCCC[C@@H](NC(=O)[C@H](Cc1ccc(O)cc1)NC(=O)[C@H](CO)NC(=O)[C@H](Cc1c[nH]c2ccccc12)NC(=O)[C@H](Cc1cnc[nH]1)NC(=O)[C@@H]1CCC(=O)N1)C(=O)N[C@@H](CC(C)C)C(=O)N[C@@H](CCCNC(=N)N)C(=O)N1CCC[C@H]1C(=O)NCC`, for which the “fold change (FC)” value in data set [1] is listed as 1038. Moreover, the Rf was 0.42 in [2]; 0.43 in data set [3]; 0.61 in data set [4]; 0.4 in data set [5]; 0.39 in [9]; 0.38 in [10]. The Rf in [6] was determined as 0.47; in data set [7], 0.72.

For `CCCCCCCCCCCCNCCC[C@@H](NC(=O)[C@H](Cc1ccc(O)cc1)NC(=O)[C@H](CO)NC(=O)[C@H](Cc1c[nH]c2ccccc12)NC(=O)[C@H](Cc1cnc[nH]1)NC(=O)[C@@H]1CCC(=O)N1)C(=O)N[C@@H](CC(C)C)C(=O)N[C@@H](CCCNC(=N)N)C(=O)N1CCC[C@H]1C(=O)NCC`, the “fold change (FC)” value in [1] is 490. For the same molecule, the Rf is on record as 0.45 in data set [2]; 0.43 in data set [3]; 0.62 in [4]; 0.38 in [5]; 0.4 in data set [9]; 0.37 in data set [10]. Moreover, the values for the Rf in [6] and in data set [7] were 0.46 and 0.72, respectively.

`CCCCCCCCCCCCNCCCC[C@@H](NC(=O)[C@H](Cc1ccc(O)cc1)NC(=O)[C@H](CO)NC(=O)[C@H](Cc1c[nH]c2ccccc12)NC(=O)[C@@H]1CCC(=O)N1)C(=O)N[C@@H](CC(C)C)C(=O)N[C@@H](CCCNC(=N)N)C(=O)N1CCC[C@H]1C(=O)NCC(N)=O`: in data set [8], the “fold change (FC)” value turned out to be 284. Moreover, the Rf came out at 0.52 in data set [2]; 0.46 in data set [3]; 0.66 in data set [4]; 0.48 in [5]; 0.44 in data set [9]; 0.43 in data set [10]. Further, the Rf in data set [6] turned out to be 0.44; in [7] it was 0.78.

Consider `CC(C)C[C@H](NC(=O)[C@@H](CCCCN)NC(=O)[C@H](Cc1ccc(O)cc1)NC(=O)[C@H](CO)NC(=O)[C@H](Cc1c[nH]c2ccccc12)NC(=O)[C@H](Cc1cnc[nH]1)NC(=O)[C@@H]1CCC(=O)N1)C(=O)N[C@@H](CCCNC(=N)N)C(=O)N1CCC[C@H]1C(=O)NCC(N)=O`, for which, in data set [1], the “fold change (FC)” value amounted to 383. Moreover, the Rf in data set [2] was determined as 0.31; in data set [3], 0.24; in data set [4], 0.42; in data set [5], 0.58; in data set [6], 0.24; in [7] it was 0.57.

On to `CC(C)C[C@H](NC(=O)[C@@H](CCCCN)NC(=O)[C@H](Cc1ccc(O)cc1)NC(=O)[C@H](CO)NC(=O)[C@H](Cc1c[nH]c2ccccc12)NC(=O)[C@@H]1CCC(=O)N1)C(=O)N[C@@H](CCCNC(=N)N)C(=O)N1CCC[C@H]1C(=O)NCC(N)=O` ([pGlu]WSY[dK]LRPG-NH2), for which the “fold change (FC)” value in data set [8] stood at 123. Also, the Rf in data set [2] is listed as 0.35; in data set [3] it was 0.33; in data set [4], 0.47; in data set [5], 0.71; in [9] it was 0.25; in [6] it was 0.26. Besides, in data set [7], the Rf came to 0.73.
